Assay results reported in US8318726B2, “Benzylidineanthracenone linked pyrrolobenzodiazepine hybrids useful as anticancer agents and process for the preparation thereof” (Council of Scientific & Industrial Research, priority 2010, dated 2012).
Read-outs that look alike come from different tables or passages of the source.

Tests used:
[1] = tested on: duplex-form calf thymus DNA (CT-DNA); experiment: Thermal denaturation studies with calf thymus DNA; type: binding; conditions: [PBD]:[DNA] molar ratio 1:5, CT-DNA 100 μM, ligand 20 μM, pH 7.00
Description: Compounds were subjected to thermal denaturation studies with duplex-form calf thymus DNA (CT-DNA) using an adaptation of a reported procedure. Working solutions in aqueous buffer (10 mM NaH2PO41Na2HPO4, 1 mM Na2EDTA, pH 7.00±0.01) containing CT-DNA (100 μm in phosphate) and the PBD (20 μm) were prepared by addition of concentrated PBD solutions in DMSO to obtain a fixed [PBD]/[DNA] molar ratio of 1:5. The DNA-PBD solutions were incubated at 37° C. for 0, 18, and 36 h prior to analysis. Samples were monitored at 260 nm using a Beckman DU-7400 spectrophotometer fitted with high performance temperature controller, and heating was applied at 1° C. min^−1 in the 40-90° C. range. DNA helix→coil transition temperatures (Tm) were obtained from the maxima in the d(A260)/dT derivative plots. Results are given as the mean±standard deviation from three determinations and are corrected for the effects of DMSO co-solvent using a linear correction term. Drug-induced alterations in DNA melting behaviour are given by: ΔTm=Tm(DNA+PBD)−Tm (DNA alone), where the Tm value for the PBD-free CT-DNA is 69.0±0.01.
For a 1:5 molar ratio of [PBD]/[DNA], where CT-DNA concentration=100 μM and ligand concentration=20 μM in aqueous sodium phosphate buffer [10 mM sodium phosphate+1 mM EDTA, pH 7.00±0.01]. The ΔTm for PBD hybrids 5b, 5c, 5d, 5h, 5m and 5r at a [PBD]:[DNA] molar ratio of 1:5 increased to a value of 7.5° C., 9.3° C., 8.9° C., 8.0° C., 7.1° C., and 8.4° C. after 18 h incubation respectively.

[2] = tested on: breast cancer cell lines (MCF7); experiment: In vitro cytotoxicity, SRB assay, breast cancer MCF7; type: cell-based, human
Source text: (§1) The C8-linked benzylidineanthracenone-PBD hybrids have been tested against eight human tumor cell lines derived from seven cancer types (breast, ovarian, colon, prostate, cervix, lung and oral cancer). For each compound, dose response curves for individual cell lines have been measured at a minimum of five concentrations at 10 fold dilutions. A protocol of 48 hrs continuous drug exposure has been used, and a sulforhodamine B (SRB) protein assay was used to estimate cell viability or growth. The results are expressed as percent of cell growth determined relative to that of untreated control cells. The GI50 values are the concentration for 50% cell growth inhibition (GI50) compared with the control has been calculated.

[3] = tested on: ovarian cancer cell lines (A2780); experiment: In vitro cytotoxicity, SRB assay, ovarian cancer A2780; type: cell-based, human
Source text: as §1

[4] = tested on: colon cancer cell lines (Colo205); experiment: In vitro cytotoxicity, SRB assay, colon cancer Colo205; type: cell-based, human
Source text: as §1

[5] = tested on: prostate cancer cell lines (PC3); experiment: In vitro cytotoxicity, SRB assay, prostate cancer PC-3; type: cell-based, human
Source text: as §1

[6] = tested on: cervix cancer cell lines (SiHa); experiment: In vitro cytotoxicity, SRB assay, cervix cancer SiHa; type: cell-based, human
Source text: as §1

[7] = tested on: lung cancer cell lines (A549); experiment: In vitro cytotoxicity, SRB assay, lung cancer A-549; type: cell-based, human
Source text: as §1

[8] = tested on: lung cancer cell lines (HoP62); experiment: In vitro cytotoxicity, SRB assay, lung cancer Hop62; type: cell-based, human
Source text: as §1

[9] = tested on: oral cancer cell lines (KB); experiment: In vitro cytotoxicity, SRB assay, oral cancer KB; type: cell-based, human
Source text: as §1

[10] = Homo sapiens, Breast MCF7, 48 hrs continuous drug exposure, SRB, read-out: GI50
[11] = Homo sapiens, breast cancer cell lines (MCF7), exposure period of at least 48 hrs, read-out: GI50 (range for the group)
[12] = Homo sapiens, Ovarian A2780, 48 hrs continuous drug exposure, SRB, read-out: GI50
[13] = Homo sapiens, ovarian cancer cell lines (A2780), exposure period of at least 48 hrs, read-out: GI50 (range for the group)
[14] = Homo sapiens, COLO 205, Colon Colo205, 48 hrs continuous drug exposure, SRB, read-out: GI50
[15] = Homo sapiens, COLO 205, colon cancer cell lines (Colo205), exposure period of at least 48 hrs, read-out: GI50 (range for the group)
[16] = Homo sapiens, Prostate PC-3, 48 hrs continuous drug exposure, SRB, read-out: GI50
[17] = Homo sapiens, prostate cancer cell lines (PC3), exposure period of at least 48 hrs, read-out: GI50 (range for the group)
[18] = Homo sapiens, Cervix SiHa, 48 hrs continuous drug exposure, SRB, read-out: GI50
[19] = Homo sapiens, cervix cancer cell lines (SiHa), exposure period of at least 48 hrs, read-out: GI50 (range for the group)
[20] = Homo sapiens, A549, Lung A-549, 48 hrs continuous drug exposure, SRB, read-out: GI50
[21] = Homo sapiens, lung cancer cell lines (A549), exposure period of at least 48 hrs, read-out: GI50 (range for the group)
[22] = Homo sapiens, HOP-62, Lung Hop62, 48 hrs continuous drug exposure, SRB, read-out: GI50
[23] = Homo sapiens, HOP-62, lung cancer cell lines (HoP62), exposure period of at least 48 hrs, read-out: GI50 (range for the group)
[24] = Homo sapiens, Oral KB, 48 hrs continuous drug exposure, SRB, read-out: GI50
[25] = Homo sapiens, oral cancer cell lines (KB), exposure period of at least 48 hrs, read-out: GI50 (range for the group)

| SMILES | ΔTm, drug-induced shift in DNA melting temperature ([1]; 0 h incubation at 37° C.) [°C] | ΔTm, drug-induced shift in DNA melting temperature ([1]; 18 h incubation at 37° C.) [°C] | GI50 [2, 10] [nM] | GI50 [2, 11] [nM] | GI50 [3, 12] [nM] | GI50 [3, 13] [nM] | GI50 [4, 14] [nM] | GI50 [4, 15] [nM] | GI50 [5, 16] [nM] | GI50 [5, 17] [nM] | GI50 [6, 18] [nM] | GI50 [6, 19] [nM] | GI50 [7, 20] [nM] | GI50 [7, 21] [nM] | GI50 [8, 22] [nM] | GI50 [8, 23] [nM] | GI50 [9, 24] [nM] | GI50 [9, 25] [nM] | other results |
| --- | --- | --- | --- | --- | --- | --- | --- | --- | --- | --- | --- | --- | --- | --- | --- | --- | --- | --- | --- |
| COc1cc(C=C2c3ccccc3C(=O)c3ccccc32)ccc1O [2a, 4-hydroxy-3-methoxybenzylidineanthracenone, reference compound] | 0.4 | 0.8 |  |  |  |  |  |  |  |  |  |  |  |  |  |  |  |  |  |
| COc1cc(C=C2c3ccccc3C(=O)c3ccccc32)ccc1OCCCOc1cc2c(cc1OC)C(=O)N1CCC[C@H]1C=N2 [5b, 7-methoxy-8-(3-{2-methoxy-4-[(10-oxo-9,10-dihydro-9-anthracenyliden)methyl]phenoxy}propoxy)-(11aS)-1,2,3,11a-5H-pyrrolo[2,1-c][1,4]benzodiazepin-5-one] | 6.1 | 7.5 | 140 | 90 to 180 | 148 | 148 to 168 | 110 | 110 to 140 | 180 | 150 to 2200 | 2200 | 2200 to 31000 | 1760 | 155 to 1940 | 190 | 170 to 260 | 190 | 180 to 2500 |  |
| COc1cc(C=C2c3ccccc3C(=O)c3ccccc32)ccc1OCCCCOc1cc2c(cc1OC)C(=O)N1CCC[C@H]1C=N2 [5c, 7-methoxy-8-(4-{2-methoxy-4-[(10-oxo-9,10-dihydro-9-anthracenyliden)methyl]phenoxy}butoxy)-(11aS)-1,2,3,11a-5H-pyrrolo[2,1-c][1,4]benzodiazepin-5-one] | 7.7 | 9.3 | 90 | 90 to 180 | 150 | 148 to 168 | 120 | 110 to 140 | 180 | 150 to 2200 |  |  | 1800 | 155 to 1940 | 180 | 170 to 260 | 200 | 180 to 2500 |  |
| COc1cc(C=C2c3ccccc3C(=O)c3ccccc32)ccc1OCCCCCOc1cc2c(cc1OC)C(=O)N1CCC[C@H]1C=N2 [5d, 7-methoxy-8-(5-{2-methoxy-4-[(10-oxo-9,10-dihydro-9-anthracenyliden)methyl]phenoxy}pentoxy)-(11aS)-1,2,3,11a-5H-pyrrolo[2,1-c][1,4]benzodiazepin-5-one] | 7.4 | 8.9 | 150 | 90 to 180 | 150 | 148 to 168 |  |  | 150 | 150 to 2200 | 2200 | 2200 to 31000 | 1940 | 155 to 1940 | 170 | 170 to 260 | 180 | 180 to 2500 |  |
| COc1cc2c(cc1OCCCCOc1ccc(C=C3c4ccccc4C(=O)c4ccccc43)cc1)N=C[C@@H]1CCCN1C2=O [5h, 7-methoxy-8-(4-{4-[(10-oxo-9,10-dihydro-9-anthracenyliden)methyl]phenoxy}butoxy)-(11aS)-1,2,3,11a-5H-pyrrolo[2,1-c][1,4]benzodiazepin-5-one] | 6.6 | 8.0 | 160 | 90 to 180 | 168 | 148 to 168 | 110 | 110 to 140 | 2200 | 150 to 2200 | 2500 | 2200 to 31000 | 150 | 155 to 1940 | 200 | 170 to 260 | 2400 | 180 to 2500 |  |
| COc1cc2c(cc1OCCCCOc1cccc(C=C3c4ccccc4C(=O)c4ccccc43)c1)N=C[C@@H]1CCCN1C2=O [5m, 7-methoxy-8-(4-{3-[(10-oxo-9,10-dihydro-9-anthracenyliden)methyl]phenoxy}butoxy)-(11aS)-1,2,3,11a-5H-pyrrolo[2,1-c][1,4]benzodiazepin-5-one] | 6.5 | 7.1 | 170 | 90 to 180 | 160 | 148 to 168 | 140 | 110 to 140 | 180 | 150 to 2200 | 2200 | 2200 to 31000 | 1820 | 155 to 1940 | 230 | 170 to 260 | 2400 | 180 to 2500 |  |
| COc1ccc(C=C2c3ccccc3C(=O)c3ccccc32)cc1OCCCCOc1cc2c(cc1OC)C(=O)N1CCC[C@H]1C=N2 [5r, 7-methoxy-8-(4-{2-methoxy-5-[(10-oxo-9,10-dihydro-9-anthracenyliden)methyl]phenoxy}butoxy)-(11aS)-1,2,3,11a-5H-pyrrolo[2,1-c][1,4]benzodiazepin-5-one] | 6.3 | 8.4 | 180 | 90 to 180 | 166 | 148 to 168 | 140 | 110 to 140 | 2100 | 150 to 2200 | 31000 | 2200 to 31000 | 1900 | 155 to 1940 | 260 | 170 to 260 | 2500 | 180 to 2500 |  |
| COc1cc2c(cc1O)N=CC1CCCN1C2=O (centres unmarked) [DC-81, reference compound] | 0.3 | 0.7 |  |  |  |  |  |  |  |  |  |  |  |  |  |  |  |  | GI50 ([2]; Breast MCF7, 48 hrs continuous drug exposure, SRB, read-out: GI50): 2190 nM; GI50 ([3]; Ovarian A2780, 48 hrs continuous drug exposure, SRB, read-out: GI50): 150 nM; GI50 ([4]; Colon Colo205, 48 hrs continuous drug exposure, SRB, read-out: GI50): 120 nM; GI50 ([5]; Prostate PC-3, 48 hrs continuous drug exposure, SRB, read-out: GI50): 200 nM; GI50 ([6]; Cervix SiHa, 48 hrs continuous drug exposure, SRB, read-out: GI50): 170 nM; GI50 ([7]; Lung A-549, 48 hrs continuous drug exposure, SRB, read-out: GI50): 380 nM; GI50 ([8]; Lung Hop62, 48 hrs continuous drug exposure, SRB, read-out: GI50): 150 nM; GI50 ([9]; Oral KB, 48 hrs continuous drug exposure, SRB, read-out: GI50): 200 nM |
